Source: article PMC8391988 (2021)

Columns and labels:
[1] = system: poly rG–poly rC (RNA, polymer) G/C; test: fluorimetric titration, Scatchard; conditions: Na+ (sodium cacodylate, I = 0.05 M); pH 7.0; apparent; per phosphate; n fixed at 0.2; dye 1.3–1.5 × 10^-7 M; per base
[2] = system: poly dAdT–poly dAdT (DNA, polymer) AT; test: fluorimetric titration, Scatchard; conditions: Na+ (sodium cacodylate, I = 0.05 M); pH 7.0; apparent; per phosphate; n fixed at 0.2; dye 1.3–1.5 × 10^-7 M; per base
[3] = system: poly dG–poly dC (DNA, polymer) G/C; test: fluorimetric titration, Scatchard; conditions: Na+ (sodium cacodylate, I = 0.05 M); pH 7.0; apparent; per phosphate; n fixed at 0.2; dye 1.3–1.5 × 10^-7 M; per base
[4] = system: poly dAdT–poly dAdT (DNA, polymer) AT; test: UV thermal melting at 260 nm; conditions: Na+ (sodium cacodylate, I = 0.05 M); pH 7.0; r = [compound]/[phosphate] = 0.2; polynucleotide 1–2 × 10^-5 M; per base
[5] = system: poly dA–poly dT (DNA, polymer) A/T; test: fluorimetric titration, Scatchard; conditions: Na+ (sodium cacodylate, I = 0.05 M); pH 7.0; apparent; per phosphate; n fixed at 0.2; dye 1.3–1.5 × 10^-7 M; per base
[6] = system: poly dGdC–poly dGdC (DNA, polymer) GC; test: fluorimetric titration, Scatchard; conditions: Na+ (sodium cacodylate, I = 0.05 M); pH 7.0; apparent; per phosphate; n fixed at 0.2; dye 1.3–1.5 × 10^-7 M; per base
[7] = system: poly rA–poly rU (RNA, polymer) A/U; test: fluorimetric titration, Scatchard; conditions: Na+ (sodium cacodylate, I = 0.05 M); pH 7.0; apparent; per phosphate; n fixed at 0.2; dye 1.3–1.5 × 10^-7 M; per base
[8] = system: poly rA–poly rU (RNA, polymer) A/U; test: UV thermal melting at 260 nm; conditions: Na+ (sodium cacodylate, I = 0.05 M), pH 7.0, polynucleotide 1–2 × 10^-5 M, per base
[9] = r = [compound]/[phosphate] = 0.2

SMILES | log Ks [1] | log Ks [2] | log Ks [3] | ΔTm [4] [°C] | log Ks [5] | log Ks [6] | log Ks [7] | ΔTm [8, 9] [°C] | ΔTm ([8]; r = 0.1, destabilised (−19.1) at r = 0.2) [°C]
CC(O)C[n+]1c(C=C2C=CN(CCC[N+](C)(C)CCC[N+](C)(C)C)c3ccccc32)sc2ccccc21 (stereo not drawn) | 5.23 | 6.65 | 6.79 | 28.6 | 6.41 | 6.98 | 6.11 | 24.0 | 
CC(O)C[n+]1c(C=C2C=CN(CCC[N+](C)(C)CCC[N+](C)(C)CCCN3C=CC(=Cc4sc5ccccc5[n+]4CC(C)O)c4ccccc43)c3ccccc32)sc2ccccc21 (stereo not drawn) | 4.94 | 7.23 | 7.55 | 8.9 | 6.19 | 7.64 | 7.15 | 3.0 | 
CC(O)C[n+]1c(C=C2C=CN(CCC[N+]3(C)CCC(CCCC4CC[N+](C)(CCCN5C=CC(=Cc6sc7ccccc7[n+]6CC(C)O)c6ccccc65)CC4)CC3)c3ccccc32)sc2ccccc21 (stereo not drawn) | 4.79 | 6.98 | 6.63 | 10.7 | 5.89 | 7.20 | 6.14 | 0 | 
CC(O)C[n+]1c(C=C2C=CN(CCC[N+]3(C)CCC(CCCC4CC[N+](C)(CCCN5C=CC(=Cc6sc7ccccc7[n+]6CC(C)O)c6ccc(Cl)cc65)CC4)CC3)c3cc(Cl)ccc32)sc2ccccc21 (stereo not drawn) | 4.95 | 6.05 | 7.41 | 7.1 | 5.91 | 7.40 | 6.14 | 0.6 | 
CC(O)C[n+]1c(C=C2C=CN(CCC[n+]3ccc(CCCc4cc[n+](CCCN5C=CC(=Cc6sc7ccccc7[n+]6CC(C)O)c6ccccc65)cc4)cc3)c3ccccc32)sc2ccccc21 (stereo not drawn) | 4.76 | 6.68 | 6.78 |  | 6.23 | 7.04 | 6.22 |  | 10.6
